From article PMC11019635, “On-Resin Photochemical Decarboxylative Arylation of Peptides” (Organic Letters, 2023) come the findings set out here.

Starred links: 1 amine or outer side, 2 acyl side, 3 side chain; linkers in the order of their positions; H or OH if unused. Non-standard residues stand in square brackets, D forms with d. Residues, ends and D or L forms follow the SMILES beside them. X1 = O=C([C@H](Cc1ccc2c(c1)OC(F)(F)O2)N[*:1])[*:2]; Phe(4-CF3) = N[C@@H](Cc1ccc(C(F)(F)F)cc1)C(=O)O; X2 = N#CCc1ccc(C[C@H](N[*:1])C(=O)[*:2])cc1; Phe(4-CN) = N#Cc1ccc(C[C@H](N)C(=O)O)cc1

Chain of PRMT5/MEP50 complex (O14744 whole entry, species assumed): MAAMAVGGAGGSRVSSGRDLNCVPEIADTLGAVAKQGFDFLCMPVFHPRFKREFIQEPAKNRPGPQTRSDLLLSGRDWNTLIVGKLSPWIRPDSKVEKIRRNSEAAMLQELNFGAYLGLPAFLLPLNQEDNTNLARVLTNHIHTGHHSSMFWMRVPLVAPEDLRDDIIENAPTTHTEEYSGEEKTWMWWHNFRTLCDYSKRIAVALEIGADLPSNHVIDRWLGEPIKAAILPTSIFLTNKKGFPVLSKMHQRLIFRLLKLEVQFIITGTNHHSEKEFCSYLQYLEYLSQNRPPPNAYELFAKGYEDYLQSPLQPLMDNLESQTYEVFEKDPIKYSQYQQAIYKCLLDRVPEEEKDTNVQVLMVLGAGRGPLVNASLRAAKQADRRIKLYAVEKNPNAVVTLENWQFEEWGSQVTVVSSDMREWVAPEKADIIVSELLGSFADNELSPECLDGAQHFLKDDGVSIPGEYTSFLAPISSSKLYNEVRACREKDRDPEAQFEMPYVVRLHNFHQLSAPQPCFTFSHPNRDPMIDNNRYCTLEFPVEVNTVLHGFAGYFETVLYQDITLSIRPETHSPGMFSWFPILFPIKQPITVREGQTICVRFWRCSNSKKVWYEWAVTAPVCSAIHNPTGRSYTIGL
Chain of PRMT5/MEP50 complex (Q9BQA1 whole entry partner, species assumed): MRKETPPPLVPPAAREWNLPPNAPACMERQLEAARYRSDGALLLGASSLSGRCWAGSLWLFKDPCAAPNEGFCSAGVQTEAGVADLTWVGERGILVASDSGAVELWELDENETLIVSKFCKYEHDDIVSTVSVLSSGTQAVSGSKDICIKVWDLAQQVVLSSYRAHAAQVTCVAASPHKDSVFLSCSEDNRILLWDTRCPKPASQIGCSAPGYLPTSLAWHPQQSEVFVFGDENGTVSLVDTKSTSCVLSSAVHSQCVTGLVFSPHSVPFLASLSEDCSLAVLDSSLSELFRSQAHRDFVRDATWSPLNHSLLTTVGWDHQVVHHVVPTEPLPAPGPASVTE

The target of one experiment is PRMT5/MEP50 complex (Homo sapiens, UniProt O14744+Q9BQA1). Kind of experiment: Competitive fluorescence polarization assay against a tracer peptide binding to the PRMT5/MEP50 complex. The note with it: competitive FP, PRMT5/MEP50 complex; relative to peptide 46. An excerpt:
Next, we used the method to perform a small SAR study on a peptide that we previously identified as an inhibitor of PRMT5 protein–protein interactions.[37] The peptide is derived from the PRMT5 binding protein RioK1 and contains a Phe that is important for high-affinity binding. We prepared a peptide with an Asp residue installed in its place, which was protected using the 2-phenylisopropyl group to avoid aspartimide formation during peptide extension that occurred while using the allyl group.[38] The batch was split, and each portion was reacted with a different Ar–Br to rapidly generate peptides with diverse Phe analogues (Figure 3C). The prepared peptides were then tested in a competitive fluorescence polarization assay against a tracer peptide binding to the PRMT5/MEP50 complex.[37] […]
h. Competitive Fluorescence Polarization assay
Evaluation of peptide 42-46 was performed similar to our previously described protocol.3 As tracer, we used peptide 50 from the same report. In brief, the peptides to be tested were serially diluted in buffer (50 mM HEPES, 250 mM NaCl, 1mM TCEP, and 0.01% (v/v) Tween 20, pH 8.0) in a black 384 wells plate in a total volume of 10 μl per well. Next, a mixture of PRMT5:MEP50 complex and tracer peptide 50 in the same buffer was added so that a final protein concentration of 200 nM and final tracer concentration of 1 nM was reached. The mixture was incubated for 1 hour and read on a Tecan Spark plate reader in fluorescence polarization mode set to an excitation wavelength of 485 nm and emission wavelength of 535 nm. Data was analyzed using Graphpad Prism version 9.2.0 and curves were fitted using nonlinear regression (log(inhibitor) vs. response – variable slope (four parameters)).
For orientation: In fluorescence polarisation assays a small probe gives low polarisation when free and higher when bound to something large.
For the compound `CC(=O)N[C@H](C(=O)N1CCC[C@H]1C(=O)NCC(=O)N[C@@H](CCC(N)=O)C(=O)N[C@@H](Cc1ccc(C#N)cc1)C(=O)N[C@@H](CC(=O)O)C(=O)N[C@@H](CC(=O)O)C(=O)N[C@@H](C)C(=O)N[C@@H](CC(=O)O)C(N)=O)C(C)C` [compound 42] (Ac-VPGQ[Phe(4-CN)]DDAD-NH2), the “fold improvement in IC50 in comparison to the wild-type peptide 46” value was found to be 3 fold.

The same experiment, now with this note: competitive FP; 200 nM PRMT5:MEP50 complex, 1 nM tracer peptide 50; 50 mM HEPES, 250 mM NaCl, 1 mM TCEP, 0.01% Tween 20, pH 8.0; 1 hour incubation; ex 485 nm / em 535 nm; four-parameter fit.
Broadly, the IC50 is the concentration that gives 50% inhibition. A high value points to lower potency. Turning to `CC(=O)N[C@H](C(=O)N1CCC[C@H]1C(=O)NCC(=O)N[C@@H](CCC(N)=O)C(=O)N[C@@H](Cc1ccc(C#N)cc1)C(=O)N[C@@H](CC(=O)O)C(=O)N[C@@H](CC(=O)O)C(=O)N[C@@H](C)C(=O)N[C@@H](CC(=O)O)C(N)=O)C(C)C` [compound 42] (Ac-VPGQ[Phe(4-CN)]DDAD-NH2), the IC50 was 0.56 ± 0.15 µM.
On the same count and under the same terms, the value for `CC(=O)N[C@H](C(=O)N1CCC[C@H]1C(=O)NCC(=O)N[C@@H](CCC(N)=O)C(=O)N[C@@H](Cc1ccc(CC#N)cc1)C(=O)N[C@@H](CC(=O)O)C(=O)N[C@@H](CC(=O)O)C(=O)N[C@@H](C)C(=O)N[C@@H](CC(=O)O)C(N)=O)C(C)C` [compound 43] (Ac-VPGQ[X2]DDAD-NH2) was 14.6 ± 6.37 µM; that for `CC(=O)N[C@H](C(=O)N1CCC[C@H]1C(=O)NCC(=O)N[C@@H](CCC(N)=O)C(=O)N[C@@H](Cc1ccc(C(F)(F)F)cc1)C(=O)N[C@@H](CC(=O)O)C(=O)N[C@@H](CC(=O)O)C(=O)N[C@@H](C)C(=O)N[C@@H](CC(=O)O)C(N)=O)C(C)C` [compound 44] (Ac-VPGQ[Phe(4-CF3)]DDAD-NH2) was 6.74 ± 3.23 µM; that for `CC(=O)N[C@H](C(=O)N1CCC[C@H]1C(=O)NCC(=O)N[C@@H](CCC(N)=O)C(=O)N[C@@H](Cc1ccc2c(c1)OC(F)(F)O2)C(=O)N[C@@H](CC(=O)O)C(=O)N[C@@H](CC(=O)O)C(=O)N[C@@H](C)C(=O)N[C@@H](CC(=O)O)C(N)=O)C(C)C` [compound 45] (Ac-VPGQ[X1]DDAD-NH2) was 17.1 ± 8.05 µM.
In turn, “Ac-VPGQFDDAD-NH2 [compound 46, reference compound]” came in with an IC50 of 1.71 ± 0.59 µM.
